# Laboratory results published in US4355026A, “4-Demethoxy,11-deoxy anthracycline derivatives” (priority 1980, dated 1982).
# Where two headings read alike, the source gives them in different places.
# Key:
# L1210 leukemia cells [1] = test: Inhibitory effect on growth of L1210 cultivated leukemic cells of mice; type: cell-based; details: Mus musculus
# Experimental: (§1) A. Inhibitory Effect on Growth, DNA Synthesis and RNA Synthesis of L1210 Cultivated Leukemic Cells of Mice
# For example, L1210 cells were inoculated in a concentration of 5×10^4 cells/ml in an RPMI 1640 culture medium (Roswell Park Memorial Institute 1640) containing 20% calf serum and, simultaneously, representative compounds of the present invention were added in a concentration of 0.1 and 0.5 μg/ml. The cells were cultivated in a CO2 generator at 37° C. The 50% growth inhibitory concentration with respect to a control group was then determined.
# [2] = tested on: L1210 leukemia cells, DNA synthesis; test: Inhibition of DNA synthesis (14C-thymidine incorporation) of L1210 cultivated leukemic cells; type: cell-based; details: Mus musculus, L1210, 1 h; for IC50: read-out: IC50 DNA synthesis; for IC90: read-out: IC90 DNA synthesis
# Experimental: as §1
# (§2) Separately, the above L1210 cultivated cells were suspended in a concentration of 5×10^5 cells/ml in an RPMI 1640 medium containing 10% calf serum and cultivated for 1 to 2 hours in a CO2 incubator at 37° C. Then, representative test compounds were added in various concentrations, and 15 minutes later, ^14 C-uridine (0.05 μCi/ml) or ^14 C-thymidine (0.05 μCi/ml) were added. The cells were incubated at 37° C. for 60 minutes. A 10% aqueous trichloroacetic acid solution was added to the incubation medium to stop the reaction and simultaneously precipitate acid-insoluble matter. The acid-insoluble matter was washed three times with a 5 to 10% aqueous solution of trichloroacetic acid and then dissolved in formic acid. The radioactivity of the acid-insoluble matter was measured. From the ratio of incorporated radiation to that of a control group, the concentrations which inhibited radiation by 10%, 50% and 90% respectively were measured.
# [3] = tested on: L1210 leukemia cells, RNA synthesis; test: Inhibition of RNA synthesis (14C-uridine incorporation) of L1210 cultivated leukemic cells; type: cell-based; details: Mus musculus, L1210, 1 h; for IC50: read-out: IC50 RNA synthesis; for IC90: read-out: IC90 RNA synthesis
# Experimental: as §1, §2
# L1210 leukemia cells [4] = test: Antitumor activity on CDFI mouse leukemia induced by mouse L1210 leukemia cells; type: in vivo, CDFI mice; set-up: key to Toxicity: *: Toxicity-; details: intraperitoneal, 10 consecutive days
# Experimental: B. Antitumor Activity on CDFI Mouse Leukemia Induced by Mouse L1210 Leukemia cells
# L1210 leukemia cells of mice were intraperitoneally transplanted in an amount of 1×10^5 cells/mouse in CDFI mice. Starting 24 hours after the transplantation, each of the test compounds was intraperitoneally administered to the mice for 10 consecutive days. the survival rate (T/C, %) was calculated in comparison with a control group (to which physiological saline was administered).
# [5] = tested on: Bacillus cereus ATCC 10702; test: MIC on nutrient agar medium; type: cell-based; details: ATCC10702
# From the text: (§3) The compounds of formula I provided by the present invention are also characterized by their antimicrobial activity. Table 3 summarizes the minimum inhibitory concentrations (MIC) of representative compounds of the present invention against various microorganisms on a nutrient agar medium.
# Bacillus megatherium APF = test: MIC on nutrient agar medium; type: cell-based
# From the text: as §3
# [6] = tested on: Bacillus subtilis NRRB- 558; test: MIC on nutrient agar medium; type: cell-based; details: NRRB558
# From the text: as §3
# [7] = tested on: Bacillus subtilis PCI 219; test: MIC on nutrient agar medium; type: cell-based; details: PCI219
# From the text: as §3
# Candida albicans 3147 = test: MIC on nutrient agar medium; type: cell-based
# From the text: as §3
# [8] = tested on: Corynebacterium bovis 1810; test: MIC on nutrient agar medium; type: cell-based
# From the text: as §3
# Escherichia coli NIHJ = test: MIC on nutrient agar medium; type: cell-based
# From the text: as §3
# [9] = tested on: Klebsiella pneumonia PCI 602; test: MIC on nutrient agar medium; type: cell-based; details: Klebsiella pneumoniae, PCI602
# From the text: as §3
# Microccus flavus FDA 16 = test: MIC on nutrient agar medium; type: cell-based
# From the text: as §3
# [10] = tested on: Microccus lysodeikticus IFQ 3333; test: MIC on nutrient agar medium; type: cell-based
# From the text: as §3
# [11] = tested on: Mycobacterium smegmatis ATCC 607; test: MIC on nutrient agar medium; type: cell-based; details: Mycolicibacterium smegmatis, ATCC607
# From the text: as §3
# [12] = tested on: Pseudomonas aeruginosa A3; test: MIC on nutrient agar medium; type: cell-based
# From the text: as §3
# Salmonella typhi T - 63 = test: MIC on nutrient agar medium; type: cell-based; details: Salmonella enterica
# From the text: as §3
# Sarcina lutea PCI 1001 = test: MIC on nutrient agar medium; type: cell-based; details: Micrococcus luteus, PCI1001
# From the text: as §3
# [13] = tested on: Shigella flexneri 46 JS 11811; test: MIC on nutrient agar medium; type: cell-based; details: 46JS11811
# From the text: as §3
# [14] = tested on: Staphylococcus aureus FDA 209; test: MIC on nutrient agar medium; type: cell-based; details: FDA209
# From the text: as §3
# [15] = tested on: Staphylococcus aureus smith; test: MIC on nutrient agar medium; type: cell-based
# From the text: as §3
# [16] = L1210, 24 h, 1 day later, RPMI 1640, 20% calf serum, 37° C., read-out: IC50 growth, 1 day later
# [17] = L1210, 48 h, 2 days later, RPMI 1640, 20% calf serum, 37° C., read-out: IC50 growth, 2 days later
# [18] = 14C-thymidine, 60 minutes, 37° C.
# [19] = 90% inhibition, 14C-thymidine, 60 minutes, 37° C.
# [20] = 14C-uridine, 60 minutes, 37° C.
# [21] = 90% inhibition, 14C-uridine, 60 minutes, 37° C.
# [22] = L1210, 24 h, read-out: IC50 growth, 1 day later
# [23] = L1210, 48 h, read-out: IC50 growth, 2 days later
compound,measurement,setting,value
"C[C@@H]1O[C@@H](O[C@H]2C[C@](O)(C(=O)CO)Cc3c(O)c4c(c(O)c32)C(=O)c2ccccc2C4=O)C[C@H](N)[C@@H]1O [4-Demethoxy-adriamycin, reference compound]",IC50,L1210 leukemia cells [1]; [16],0.02 µg/mL
same,IC50,L1210 leukemia cells [1]; [17],0.006 µg/mL
same,IC50,[2]; [18],1.6 µg/mL
same,IC90,[2]; [19],10 µg/mL
same,IC50,[3]; [20],1.2 µg/mL
same,IC90,[3]; [21],6 µg/mL
COc1cccc2c1C(=O)c1c(O)c3c(c(O)c1C2=O)C[C@@](O)(C(=O)CO)C[C@@H]3O[C@H]1C[C@H](N)[C@H](O)[C@H](C)O1 [Adriamycin],IC50,L1210 leukemia cells [1]; [22],0.05 µg/mL
same,IC50,L1210 leukemia cells [1]; [23],0.03 µg/mL
same,IC50,[2],1.65 µg/mL
same,IC90,[2],4.5 µg/mL
same,IC50,[3],0.68 µg/mL
same,IC90,[3],6.5 µg/mL
same,"Survival rate (T/C, %)",L1210 leukemia cells [4]; 0.15 mg/kg/day,130%
same,"Survival rate (T/C, %)",L1210 leukemia cells [4]; 0.3 mg/kg/day,147%
same,"Survival rate (T/C, %)",L1210 leukemia cells [4]; 0.6 mg/kg/day,239%
same,"Survival rate (T/C, %)",L1210 leukemia cells [4]; 1.25 mg/kg/day,272%
same,"Survival rate (T/C, %)",L1210 leukemia cells [4]; 2.5 mg/kg/day,351%
same,"Survival rate (T/C, %)",L1210 leukemia cells [4]; 5 mg/kg/day,189%
same,Toxicity,L1210 leukemia cells [4]; 5 mg/kg/day,*
"C[C@@H]1O[C@@H](O[C@@H]2C[C@@](O)(C(=O)CO)Cc3cc4c(c(O)c32)C(=O)c2ccccc2C4=O)C[C@H](N)[C@@H]1O (single isomer, unassigned; isomer 4) [4-Demethoxy-11-deoxy-adriamycin (7R,9R,1'α)isomer, 4-Demethoxy-11-deoxyadriamycin]",IC50,L1210 leukemia cells [1]; [16],72.5 µg/mL
same,IC50,L1210 leukemia cells [1]; [17],72.5 µg/mL
same,IC50,[2]; [18],> 10 µg/mL
same,IC90,[2]; [19],> 10 µg/mL
same,IC50,[3]; [20],> 10 µg/mL
same,IC90,[3]; [21],> 10 µg/mL
same,MIC,[5],> 100 µg/mL
same,MIC,Bacillus megatherium APF,> 100 µg/mL
same,MIC,[6],> 100 µg/mL
same,MIC,[7],> 100 µg/mL
same,MIC,Candida albicans 3147,> 100 µg/mL
same,MIC,[8],> 100 µg/mL
same,MIC,Escherichia coli NIHJ,> 100 µg/mL
same,MIC,[9],> 100 µg/mL
same,MIC,Microccus flavus FDA 16,> 100 µg/mL
same,MIC,[10],> 100 µg/mL
same,MIC,[11],100 µg/mL
same,MIC,[12],> 100 µg/mL
same,MIC,Salmonella typhi T - 63,> 100 µg/mL
same,MIC,Sarcina lutea PCI 1001,> 100 µg/mL
same,MIC,[13],> 100 µg/mL
same,MIC,[14],> 100 µg/mL
same,MIC,[15],> 100 µg/mL
"COc1cccc2c1C(=O)c1c(O)c3c(c(O)c1C2=O)C[C@@](O)(C(C)=O)C[C@@H]3O[C@H]1C[C@H](N)[C@H](O)[C@H](C)O1 [Daunomycin, reference compound]",IC50,L1210 leukemia cells [1]; [22],0.049 µg/mL
same,IC50,L1210 leukemia cells [1]; [23],0.036 µg/mL
same,IC50,[2],0.3 µg/mL
same,IC90,[2],1.8 µg/mL
same,IC50,[3],0.18 µg/mL
same,IC90,[3],1.8 µg/mL
same,"Survival rate (T/C, %)",L1210 leukemia cells [4]; 0.15 mg/kg/day,118%
same,"Survival rate (T/C, %)",L1210 leukemia cells [4]; 0.3 mg/kg/day,132%
same,"Survival rate (T/C, %)",L1210 leukemia cells [4]; 0.6 mg/kg/day,145%
same,"Survival rate (T/C, %)",L1210 leukemia cells [4]; 1.25 mg/kg/day,191%
same,"Survival rate (T/C, %)",L1210 leukemia cells [4]; 2.5 mg/kg/day,138%
same,"Survival, in words (dead through toxicity)",L1210 leukemia cells [4]; 5 mg/kg/day,dead
"CC(=O)[C@@]1(O)Cc2cc3c(c(O)c2[C@H](O[C@@H]2C[C@H](N)[C@H](O)[C@H](C)O2)C1)C(=O)c1ccccc1C3=O (single isomer, unassigned; isomer 4) [4-Demethoxy-11-deoxy-daunomycin (7R,9R,1'β )isomer, 4-Demethoxy-11-deoxydaunomycin]",IC50,L1210 leukemia cells [1]; [16],2 µg/mL
same,IC50,L1210 leukemia cells [1]; [17],1.25 µg/mL
same,IC50,[2]; [18],4.5 µg/mL
same,IC90,[2]; [19],15 µg/mL
same,IC50,[3]; [20],5 µg/mL
same,IC90,[3]; [21],13 µg/mL
"CC(=O)[C@]1(O)Cc2cc3c(c(O)c2[C@@H](O[C@@H]2C[C@H](N)[C@H](O)[C@H](C)O2)C1)C(=O)c1ccccc1C3=O (single isomer, unassigned; isomer 4) [4-Demethoxy-11-deoxy-daunomycin (7S,9S,1'β)isomer, 4-Demethoxy-11-deoxydaunomycin]",IC50,L1210 leukemia cells [1]; [16],1.4 µg/mL
same,IC50,L1210 leukemia cells [1]; [17],0.51 µg/mL
same,IC50,[2]; [18],3.1 µg/mL
same,IC90,[2]; [19],15 µg/mL
same,IC50,[3]; [20],5.4 µg/mL
same,IC90,[3]; [21],14 µg/mL
"COc1cccc2c1C(=O)c1c(cc3c(c1O)[C@@H](O[C@H]1C[C@H](N)[C@H](O)[C@H](C)O1)C[C@](O)(C(C)=O)C3)C2=O [11-deoxy-daunomycin, reference compound]",IC50,L1210 leukemia cells [1]; [16],0.05 µg/mL
"COc1cccc2c1C(=O)c1c(cc3c(c1O)[C@@H](O[C@H]1C[C@H](N)[C@H](O)[C@H](C)O1)C[C@](O)(C(=O)CO)C3)C2=O [11-Deoxy-adriamycin, reference compound]",IC50,L1210 leukemia cells [1]; [16],0.005 µg/mL
"CC(=O)[C@]1(O)Cc2c(O)c3c(c(O)c2[C@@H](O[C@H]2C[C@H](N)[C@H](O)[C@H](C)O2)C1)C(=O)c1ccccc1C3=O [4-Demethoxy-daunomycin, reference compound]",IC50,L1210 leukemia cells [1]; [16],0.01 µg/mL
same,IC50,L1210 leukemia cells [1]; [17],0.005 µg/mL
same,IC50,[2]; [18],0.08 µg/mL
same,IC90,[2]; [19],1.2 µg/mL
same,IC50,[3]; [20],0.14 µg/mL
same,IC90,[3]; [21],1.4 µg/mL
